The source of these data is patent US10426168B2, “Agent for controlling noxious arthropods” (Sumitomo Chemical Company, Limited, priority 2015, dated 2019).

For the experiment, the system named is common house mosquitoes (Culex pipens pallens) at the last instar larval stages. Description: Test Example 2: mortality of common house mosquito larvae in treated water. Type of experiment: in vivo. Particulars: 24 h, 3.5 ppm in water, 30 last instar larvae, after 1 day. As to the method: Each of the formulations that were prepared in Formulation Example 15 containing Present compounds (1), (2), (3) and (4) was diluted with water so as to make a concentration of each of the compound 500 ppm, to obtain a diluted solution containing Present compounds (1), (2), (3) and (4), respectively. The above-mentioned diluted solutions were added to 100 mL of ion-exchanged water (Concentrations of Present compounds were 3.5 ppm). Thirty (30) heads of common house mosquitoes (Culex pipens pallens) at the last instar larval stages were released into the resulting diluted solutions having the concentration of 3.5 ppm, and after 1 day, the life and death of the insects were examined, and the mortality of insects was calculated by the following equation. Mortality (%)=(Number of the dead insects/Number of test insects)×100
As usually defined, the mortality is the percentage killed. A low value points to a weak lethal effect. Take `CC(C)(N)CNC(=O)c1cc(COCc2ccc3ccccc3c2)on1` [(2)]: the mortality at 3.5 ppm is not below 91%.
To `CCCCc1cc(C(=O)NCC(C)(C)N)no1` [(3)] belongs not below 91%; to `CC(C)(N)CNC(=O)c1cc(COCc2ccccc2)on1` [(1)], not below 91%.
The compound `CCCCc1cc(C(=O)NC(C)(C)C(C)(C)N)no1` [(4)] came in with a mortality at 3.5 ppm not below 91%.
